US12643903B2, “Bifunctional compounds for degradation of EGFR and related methods of use” (BeiGene, Ltd., priority 2020, dated 2026)

How the values were obtained:
Type in all cases: cell-based
Conditions in all cases: 16 h treatment, EGFR degradation by HTRF
EGFR [1] = biological target: T1, EGFR (Homo sapiens, UniProt P00533, DEL746-750); assay: Cell Degradation 2: EGFR degradation in HCC827 cells, HTRF assay
T1 construct: endogenous in cells; host or cells: HCC827
Outline: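 Compound-treated HCC827 cells were lysed after 16 h and EGFR measured by HTRF (337 nm excitation, 665/620 nm emission) after overnight antibody incubation at room temperature. DC50 came from a four-parameter fit of percent inhibition against compound concentration.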

EGFR DTC = assay: Cell Degradation 3: EGFR degradation in BaF3 cells (DTC), HTRF assay
Description: (§1) Cell Degradation 3 Cell Treatment
(§2) BaF3 cells are treated with compounds diluted in 0.2% DMSO, dilution is done according to the following protocol: (1) make 500× stock solution in DMSO from 5 mM by 4-fold dilution, total 8 doses were included; (2) make 2× solution in cell culture medium by transferring 0.5 μl 500× stock solution into 125 μl medium; (3) 30 μl of 2× solution is added to cells and incubate for 16 h.
(§3) After 16 h treatment, add 20 μl 4×lysis buffer to each well; seal the plate and incubate 1 hour at room temperature on a plate shaker; Once the cells are lysed, 16 μL of cell lysate are transferred to a PE 384-well HTRF detection plate (for triple mutant cells, the lysate were diluted by the qual volume 1×lysis buffer before transfer); 4 μL of pre-mixed HTRF antibodies are added to each well; Cover the plate with a plate sealer, spin 1000 rpm for 1 min, Incubate overnight at room temperature; Read on BMG PheraStar with HTRF protocol (337 nm-665 nm-620 nm).
(§4) The IC50 (DC50) value of a compound can be obtained by fitting the following equation Y=Bottom+(TOP−Bottom)/(1+((IC50/X)^hillslope))
(§5) Wherein, X and Y are known values, and IC50, Hillslope, Top and Bottom are the parameters obtained by fitting with software. Y is the inhibition percentage (calculated from the equation), X is the concentration of the compound; IC50 is the concentration of the compound when the 50% inhibition is reached. The smaller the IC50 value is, the stronger the inhibitory ability of the compound is. Vice versa, the higher the IC50 value is, the weaker the ability the inhibitory ability of the compound is; Hillslope represents the slope of the fitted curve, generally around 1*; Bottom represents the minimum value of the curve obtained by data fitting, which is generally 0%±20%; Top represents the maximum value of the curve obtained by data fitting, which is generally 100%±20%. The experimental data were fitted by calculating and analyzing with Dotmatics data analysis software.

EGFR [2] = biological target: T2, EGFR (Homo sapiens, UniProt P00533, L858R/T790M); assay: Cell Degradation 1: EGFR degradation in H1975 cells, HTRF assay
T2 construct: endogenous in cells; host or cells: H1975
T2 sequence (P00533 25-1210 T790M/L858R): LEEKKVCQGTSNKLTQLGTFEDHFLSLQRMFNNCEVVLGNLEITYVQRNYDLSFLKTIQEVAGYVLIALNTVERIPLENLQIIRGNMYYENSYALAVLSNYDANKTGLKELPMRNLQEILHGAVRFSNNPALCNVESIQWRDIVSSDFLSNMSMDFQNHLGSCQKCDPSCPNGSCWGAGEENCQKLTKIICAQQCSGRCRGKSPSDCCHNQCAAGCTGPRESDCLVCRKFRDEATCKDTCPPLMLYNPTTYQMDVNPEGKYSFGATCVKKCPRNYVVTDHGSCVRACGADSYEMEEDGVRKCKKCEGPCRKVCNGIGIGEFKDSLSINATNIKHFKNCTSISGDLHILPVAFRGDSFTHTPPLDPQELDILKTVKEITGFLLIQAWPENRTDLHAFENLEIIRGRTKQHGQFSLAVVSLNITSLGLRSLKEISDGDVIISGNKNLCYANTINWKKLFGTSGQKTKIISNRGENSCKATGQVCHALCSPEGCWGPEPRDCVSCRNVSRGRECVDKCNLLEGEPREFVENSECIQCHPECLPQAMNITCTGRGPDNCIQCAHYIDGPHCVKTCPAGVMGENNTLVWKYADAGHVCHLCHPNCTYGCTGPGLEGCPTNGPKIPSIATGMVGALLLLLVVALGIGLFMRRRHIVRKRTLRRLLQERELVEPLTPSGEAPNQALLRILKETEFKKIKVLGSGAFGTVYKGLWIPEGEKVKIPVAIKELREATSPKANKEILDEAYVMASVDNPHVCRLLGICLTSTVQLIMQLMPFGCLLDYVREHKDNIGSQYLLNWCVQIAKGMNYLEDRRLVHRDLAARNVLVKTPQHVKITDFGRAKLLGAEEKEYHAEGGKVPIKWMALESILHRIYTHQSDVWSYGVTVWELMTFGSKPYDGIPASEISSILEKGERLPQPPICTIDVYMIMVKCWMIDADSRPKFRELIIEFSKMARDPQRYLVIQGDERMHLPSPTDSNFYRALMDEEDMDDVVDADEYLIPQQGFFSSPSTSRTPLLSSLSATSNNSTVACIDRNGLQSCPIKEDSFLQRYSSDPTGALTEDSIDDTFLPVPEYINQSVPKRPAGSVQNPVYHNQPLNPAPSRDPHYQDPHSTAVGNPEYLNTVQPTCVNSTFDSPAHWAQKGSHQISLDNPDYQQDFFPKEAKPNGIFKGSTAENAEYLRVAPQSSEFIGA
Outline: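 H1975 cells treated with compound for 16 h, lysed 1 h at room temperature. EGFR measured by HTRF after overnight antibody incubation (665/620 nm). DC50 from four-parameter logistic fit of percent inhibition against concentration.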

EGFR LTC = biological target: T3, EGFR LTC (Homo sapiens, UniProt P00533, C797S/L858R/T790M); assay: Cell Degradation 3: EGFR degradation in BaF3 cells (LTC), HTRF assay
T3 construct: expressed in transfected cells; host or cells: BaF3
T3 sequence (P00533 25-1210 T790M/C797S/L858R): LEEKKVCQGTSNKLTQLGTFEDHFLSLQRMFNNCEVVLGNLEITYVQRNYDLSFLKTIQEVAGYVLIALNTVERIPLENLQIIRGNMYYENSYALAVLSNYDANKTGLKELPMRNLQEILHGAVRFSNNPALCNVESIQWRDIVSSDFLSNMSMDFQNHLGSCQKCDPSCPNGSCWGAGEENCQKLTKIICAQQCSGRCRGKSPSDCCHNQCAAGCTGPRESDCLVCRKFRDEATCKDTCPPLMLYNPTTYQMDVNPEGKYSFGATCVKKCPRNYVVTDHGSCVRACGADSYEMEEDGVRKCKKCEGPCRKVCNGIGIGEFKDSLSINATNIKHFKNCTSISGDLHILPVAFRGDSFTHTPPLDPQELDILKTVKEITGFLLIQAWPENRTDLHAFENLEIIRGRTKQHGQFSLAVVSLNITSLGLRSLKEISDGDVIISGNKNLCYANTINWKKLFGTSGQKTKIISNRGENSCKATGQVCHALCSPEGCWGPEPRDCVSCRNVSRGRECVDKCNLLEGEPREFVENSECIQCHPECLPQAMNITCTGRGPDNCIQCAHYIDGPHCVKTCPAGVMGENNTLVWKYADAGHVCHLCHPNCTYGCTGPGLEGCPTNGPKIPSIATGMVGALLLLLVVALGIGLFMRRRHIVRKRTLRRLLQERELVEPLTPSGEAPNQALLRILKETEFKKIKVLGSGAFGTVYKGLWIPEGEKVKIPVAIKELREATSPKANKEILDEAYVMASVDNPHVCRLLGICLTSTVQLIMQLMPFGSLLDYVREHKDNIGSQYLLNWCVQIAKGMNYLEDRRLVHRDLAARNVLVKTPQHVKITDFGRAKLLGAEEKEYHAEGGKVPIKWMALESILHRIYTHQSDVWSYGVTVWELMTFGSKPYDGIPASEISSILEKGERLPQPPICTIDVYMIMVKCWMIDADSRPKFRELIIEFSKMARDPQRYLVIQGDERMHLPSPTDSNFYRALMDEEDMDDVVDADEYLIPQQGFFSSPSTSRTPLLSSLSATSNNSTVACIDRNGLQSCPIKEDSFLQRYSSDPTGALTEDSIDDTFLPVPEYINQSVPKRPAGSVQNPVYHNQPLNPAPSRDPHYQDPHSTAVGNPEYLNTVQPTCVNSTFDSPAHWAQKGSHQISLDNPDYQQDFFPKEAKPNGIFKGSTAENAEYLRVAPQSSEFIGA
Description: as §1, §2, §3, §4, §5

T1 sequence (P00533 with tags, fused parts or gaps DEL746-750): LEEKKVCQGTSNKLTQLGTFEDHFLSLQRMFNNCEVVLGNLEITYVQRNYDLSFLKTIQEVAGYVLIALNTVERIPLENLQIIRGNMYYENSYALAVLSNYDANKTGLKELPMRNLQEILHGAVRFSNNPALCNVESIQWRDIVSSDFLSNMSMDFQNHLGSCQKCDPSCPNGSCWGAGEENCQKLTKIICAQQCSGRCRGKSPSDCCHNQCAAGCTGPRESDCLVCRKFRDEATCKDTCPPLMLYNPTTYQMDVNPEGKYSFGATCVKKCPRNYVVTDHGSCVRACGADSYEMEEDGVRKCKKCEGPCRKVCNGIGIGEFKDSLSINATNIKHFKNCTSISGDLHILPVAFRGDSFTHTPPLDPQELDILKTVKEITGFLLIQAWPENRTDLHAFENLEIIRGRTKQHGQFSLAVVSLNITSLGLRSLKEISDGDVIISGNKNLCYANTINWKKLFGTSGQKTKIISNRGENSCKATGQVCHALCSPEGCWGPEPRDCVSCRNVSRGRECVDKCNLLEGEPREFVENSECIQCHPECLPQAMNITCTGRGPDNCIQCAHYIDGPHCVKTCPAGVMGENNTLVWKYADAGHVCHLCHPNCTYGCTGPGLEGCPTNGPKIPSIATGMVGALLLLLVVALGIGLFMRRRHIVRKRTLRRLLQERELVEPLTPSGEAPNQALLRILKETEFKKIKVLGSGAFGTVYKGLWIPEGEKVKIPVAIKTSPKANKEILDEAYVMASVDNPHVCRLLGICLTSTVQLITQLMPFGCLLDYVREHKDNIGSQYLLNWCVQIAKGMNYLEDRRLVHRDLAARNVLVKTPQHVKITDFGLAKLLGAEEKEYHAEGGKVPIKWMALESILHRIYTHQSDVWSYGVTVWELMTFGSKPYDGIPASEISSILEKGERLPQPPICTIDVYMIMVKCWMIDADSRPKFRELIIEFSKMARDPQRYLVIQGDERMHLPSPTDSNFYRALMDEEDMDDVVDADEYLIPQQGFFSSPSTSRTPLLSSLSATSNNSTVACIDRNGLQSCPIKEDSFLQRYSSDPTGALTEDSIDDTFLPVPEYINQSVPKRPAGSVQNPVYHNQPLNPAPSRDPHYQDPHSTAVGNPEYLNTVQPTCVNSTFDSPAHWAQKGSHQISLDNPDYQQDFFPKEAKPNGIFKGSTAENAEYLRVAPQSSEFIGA
T1 sequence (Q96SW2 whole entry partner): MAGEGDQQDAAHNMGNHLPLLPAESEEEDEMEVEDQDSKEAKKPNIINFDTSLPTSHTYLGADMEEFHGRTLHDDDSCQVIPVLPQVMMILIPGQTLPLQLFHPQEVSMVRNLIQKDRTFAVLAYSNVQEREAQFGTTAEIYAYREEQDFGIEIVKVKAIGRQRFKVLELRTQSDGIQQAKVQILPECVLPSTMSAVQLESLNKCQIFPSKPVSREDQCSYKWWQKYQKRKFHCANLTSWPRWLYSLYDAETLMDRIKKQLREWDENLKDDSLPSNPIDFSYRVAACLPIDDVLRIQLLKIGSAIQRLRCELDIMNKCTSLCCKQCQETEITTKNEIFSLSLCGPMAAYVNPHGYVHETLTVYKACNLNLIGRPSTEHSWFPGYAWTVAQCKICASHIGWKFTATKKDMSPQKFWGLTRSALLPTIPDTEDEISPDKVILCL

Row | DC50 (EGFR [1]) [nM] | DC50 (EGFR DTC) [nM] | DC50 (EGFR [2]) [nM] | DC50 (EGFR LTC) [nM] | Compound
1 | 19.8 | 11.6 | 9.5 | 19.9 | CS(=O)(=O)N1CCc2cccc(Nc3nc(Nc4ccc(N5CCC(N6CCN(CCc7ccc(C8CCC(=O)NC8=O)c(F)c7)CC6)CC5)c(F)c4)nc4[nH]ccc34)c21 (stereo not drawn) [Example 3, 3-(2-fluoro-4-(2-(4-(1-(2-fluoro-4-((4-((1-(methylsulfonyl)indolin-7-yl)amino)-7H-pyrrolo[2,3-d]pyrimidin-2-yl)amino)phenyl)piperidin-4-yl)piperazin-1-yl)ethyl)phenyl)piperidine-2,6-dione]
2 | 12.7 | 13.4 | 9.1 | 8.4 | CS(=O)(=O)N1CCc2cccc(Nc3nc(Nc4ccc(N5CCC(N6CCN(CCC7CCN(c8ccc(C9CCC(=O)NC9=O)cc8)CC7)CC6)CC5)c(F)c4)nc4[nH]ccc34)c21 (stereo not drawn) [Example 8, 3-(4-(4-(2-(4-(1-(2-fluoro-4-((4-((1-(methylsulfonyl)indolin-7-yl)amino)-7H-pyrrolo[2,3-d]pyrimidin-2-yl)amino)phenyl)piperidin-4-yl)piperazin-1-yl)ethyl)piperidin-1-yl)phenyl)piperidine-2,6-dione]
3 | 2 | 4 |  | 9 | COc1cc(N2CCC(N3CCN(C(=O)C4CN(c5ccc6c(c5)CN(C5CCC(=O)NC5=O)C6=O)C4)CC3)CC2)c(C)cc1Nc1ncc(Br)c(Nc2cccc3c2N(S(C)(=O)=O)CC3)n1 (stereo not drawn) [Example 172, 3-(5-(3-(4-(1-(4-((5-bromo-4-((1-(methylsulfonyl)indolin-7-yl)amino)pyrimidin-2-yl)amino)-5-methoxy-2-methylphenyl)piperidin-4-yl)piperazine-1-carbonyl)azetidin-1-yl)-1-oxoisoindolin-2-yl)piperidine-2,6-dione]
4 |  | 94 |  | 65 | COc1cc(N2CCC(N3CCN(C[C@H]4C[C@H](N(C)c5ccc(C6CCC(=O)NC6=O)cc5)C4)CC3)CC2)c(C)cc1Nc1ncc(Br)c(Nc2cccc3c2N(S(C)(=O)=O)CC3)n1 (stereo partly drawn) [Example 176, 3-(4-(((1r,3r)-3-((4-(1-(4-((5-bromo-4-((1-(methylsulfonyl)indolin-7-yl)amino)pyrimidin-2-yl)amino)-5-methoxy-2-methylphenyl)piperidin-4-yl)piperazin-1-yl)methyl)cyclobutyl)(methyl)amino)phenyl)piperidine-2,6-dione]
5 |  | > 10000 |  | 123 | COc1cc(N2CCC(N3CCN(C4CCN(c5cccc(C6CCC(=O)NC6=O)c5)CC4)CC3)CC2)c(C)cc1Nc1ncc(Br)c(Nc2cccc3c2N(S(C)(=O)=O)CC3)n1 (stereo not drawn) [Example 177, 3-(3-(4-(4-(1-(4-((5-bromo-4-((1-(methylsulfonyl)indolin-7-yl)amino)pyrimidin-2-yl)amino)-5-methoxy-2-methylphenyl)piperidin-4-yl)piperazin-1-yl)piperidin-1-yl)phenyl)piperidine-2,6-dione]
6 |  | 8 |  | 23 | COc1cc(N2CCC(N3CCN(C(=O)C4CCN(c5ccc6c(c5)C(=O)N(C5CCC(=O)NC5=O)C6=O)CC4)CC3)CC2)c(C)cc1Nc1ncc(Cl)c(Nc2cccc3c2N(S(C)(=O)=O)CC3)n1 (stereo not drawn) [Example 178, 5-(4-(4-(1-(4-((5-chloro-4-((1-(methylsulfonyl)indolin-7-yl)amino)pyrimidin-2-yl)amino)-5-methoxy-2-methylphenyl)piperidin-4-yl)piperazine-1-carbonyl)piperidin-1-yl)-2-(2,6-dioxopiperidin-3-yl)isoindoline-1,3-dione]
7 |  | 14 |  | 30 | COc1cc(N2CCC(N3CCN(CC4CN(c5ccc6c(c5)C(=O)N(C5CCC(=O)NC5=O)C6)C4)CC3)CC2)c(C)cc1Nc1ncc(Br)c(Nc2cccc3c2N(S(C)(=O)=O)CC3)n1 (stereo not drawn) [Example 180, 3-(6-(3-((4-(1-(4-((5-bromo-4-((1-(methylsulfonyl)indolin-7-yl)amino)pyrimidin-2-yl)amino)-5-methoxy-2-methylphenyl)piperidin-4-yl)piperazin-1-yl)methyl)azetidin-1-yl)-1-oxoisoindolin-2-yl)piperidine-2,6-dione]
8 |  | 43 |  | 64 | COc1cc(N2CCC(N3CCN(CC4CCN(c5cc(F)c(C6CCC(=O)NC6=O)c(F)c5)CC4)CC3)CC2)c(C)cc1Nc1ncc(Br)c(Nc2cccc3c2N(S(C)(=O)=O)CC3)n1 (stereo not drawn) [Example 181, 3-(4-(4-((4-(1-(4-((5-bromo-4-((1-(methylsulfonyl)indolin-7-yl)amino)pyrimidin-2-yl)amino)-5-methoxy-2-methylphenyl)piperidin-4-yl)piperazin-1-yl)methyl)piperidin-1-yl)-2,6-difluorophenyl)piperidine-2,6-dione]
9 |  | 77 |  | 70 | COc1cc(N2CCC(N3CCN(C4CC(c5ccc(NC6CCC(=O)NC6=O)cc5)C4)CC3)CC2)c(C)cc1Nc1ncc(Br)c(Nc2cccc3c2N(S(C)(=O)=O)CC3)n1 (stereo not drawn) [Example 182, 3-((4-(3-(4-(1-(4-((5-bromo-4-((1-(methylsulfonyl)indolin-7-yl)amino)pyrimidin-2-yl)amino)-5-methoxy-2-methylphenyl)piperidin-4-yl)piperazin-1-yl)cyclobutyl)phenyl)amino)piperidine-2,6-dione]
10 |  | 27 |  | 33 | COc1cc(N2CCC(N3CCN(CC4CN(c5cc(F)c(C6CCC(=O)NC6=O)c(F)c5)C4)CC3)CC2)c(C)cc1Nc1ncc(Br)c(Nc2cccc3c2N(S(C)(=O)=O)CC3)n1 (stereo not drawn) [Example 184, 3-(4-(3-((4-(1-(4-((5-bromo-4-((1-(methylsulfonyl)indolin-7-yl)amino)pyrimidin-2-yl)amino)-5-methoxy-2-methylphenyl)piperidin-4-yl)piperazin-1-yl)methyl)azetidin-1-yl)-2,6-difluorophenyl)piperidine-2,6-dione]
11 |  | 4 |  | 18 | COc1cc(N2CCC(N3CCN(CCc4cc(F)c(C5CCC(=O)NC5=O)c(F)c4)CC3=O)CC2)c(C)cc1Nc1ncc(Br)c(Nc2cccc3c2N(S(C)(=O)=O)CC3)n1 (stereo not drawn) [Example 185, 3-(4-(2-(4-(1-(4-((5-bromo-4-((1-(methylsulfonyl)indolin-7-yl)amino)pyrimidin-2-yl)amino)-5-methoxy-2-methylphenyl)piperidin-4-yl)-3-oxopiperazin-1-yl)ethyl)-2,6-difluorophenyl)piperidine-2,6-dione]
12 |  | 6 |  | 27 | COc1cc(N2CCC(N3CCN(CCC4CCN(c5cc(F)c(C6CCC(=O)NC6=O)c(F)c5)CC4)CC3=O)CC2)c(C)cc1Nc1ncc(Br)c(Nc2cccc3c2N(S(C)(=O)=O)CC3)n1 (stereo not drawn) [Example 186, 3-(4-(4-(2-(4-(1-(4-((5-bromo-4-((1-(methylsulfonyl)indolin-7-yl)amino)pyrimidin-2-yl)amino)-5-methoxy-2-methylphenyl)piperidin-4-yl)-3-oxopiperazin-1-yl)ethyl)piperidin-1-yl)-2,6-difluorophenyl)piperidine-2,6-dione]
13 |  | 14 |  | 19 | COc1cc(N2CCC(N3CCN(C(=O)C4CCN(c5cc(F)c(C6CCC(=O)NC6=O)c(F)c5)C4)CC3)CC2)c(C)cc1Nc1ncc(Br)c(Nc2cccc3c2N(S(C)(=O)=O)CC3)n1 (stereo not drawn) [Example 187, 3-(4-(3-(4-(1-(4-((5-bromo-4-((1-(methylsulfonyl)indolin-7-yl)amino)pyrimidin-2-yl)amino)-5-methoxy-2-methylphenyl)piperidin-4-yl)piperazine-1-carbonyl)pyrrolidin-1-yl)-2,6-difluorophenyl)piperidine-2,6-dione]
14 |  | 6 |  | 15 | COc1cc(N2CCC(N3CCN(C(=O)C4CN(c5cc(F)c(C6CCC(=O)NC6=O)c(F)c5)C4)CC3)CC2)c(C)cc1Nc1ncc(Br)c(Nc2cccc3c2N(S(C)(=O)=O)CC3)n1 (stereo not drawn) [Example 188, 3-(4-(3-(4-(1-(4-((5-bromo-4-((1-(methylsulfonyl)indolin-7-yl)amino)pyrimidin-2-yl)amino)-5-methoxy-2-methylphenyl)piperidin-4-yl)piperazine-1-carbonyl)azetidin-1-yl)-2,6-difluorophenyl)piperidine-2,6-dione]
